Data from ChEMBL document CHEMBL4184279, “Synthesis, antimicrobial activity and acid dissociation constants of methyl 5,5-diphenyl-1-(thiazol-2-yl)pyrrolidine-2-carboxylate derivatives” (Bioorg Med Chem Lett, 2018).
≈ marks a conversion by molar mass, not a printed value.

What was measured:
Staphylococcus aureus = assay: Antibacterial activity against Staphylococcus aureus ATCC 25925; type: functional
Bacillus spizizenii = assay: Antibacterial activity against Bacillus subtilis ATCC 6633; type: functional
Candida tropicalis = assay: Antifungal activity against Candida tropicalis ATCC 750 after 48 hrs by microdilution broth method; type: functional; conditions: ATCC 750, 48 h
[1] = Acid dissociation constant, pKa for OH group of the compound in DMSO-water mixture at 25 +/- 0.1 degC by potentiometric method; type: physicochemical
[2] = test system: Mycobacterium tuberculosis; assay: Antimycobacterial activity against Mycobacterium tuberculosis H37Rv after 7 days by REMA; type: functional; conditions: 168 h
Nakaseomyces glabratus = assay: Antifungal activity against Candida glabrata ATCC 90030 after 48 hrs by microdilution broth method; type: functional; conditions: ATCC 90030, 48 h
Aeromonas hydrophila = assay: Antibacterial activity against Aeromonas hydrophila ATCC 95080; type: functional
Acinetobacter baumannii = assay: Antibacterial activity against Acinetobacter baumannii ATCC 02026; type: functional
[3] = Acid dissociation constant, pKa for SH group of the compound in DMSO-water mixture at 25 +/- 0.1 degC by potentiometric method; type: physicochemical
Escherichia coli = assay: Antibacterial activity against Escherichia coli; type: functional
Candida parapsilosis = assay: Antifungal activity against Candida parapsilosis ATCC 22019 after 48 hrs by microdilution broth method; type: functional; conditions: Lodderomyces parapsilosis, ATCC 22019, 48 h
[4] = Acid dissociation constant, pKa for NH group of the compound in DMSO-water mixture at 25 +/- 0.1 degC by potentiometric method; type: physicochemical

Structure (SMILES)	MIC (Staphylococcus aureus)	MIC (Bacillus spizizenii)	MIC (Candida tropicalis)	pKa [1]	MIC [2]	MIC (Nakaseomyces glabratus)	MIC (Aeromonas hydrophila)	MIC (Acinetobacter baumannii)	pKa [3]	MIC (Escherichia coli)	MIC (Candida parapsilosis)	pKa [4]
COC(=O)[C@H]1C[C@@H](S(=O)(=O)c2ccccc2)C(c2ccccc2)(c2ccccc2)N1c1nc(-c2ccccc2)c(C(=O)c2ccc(F)cc2)s1	125 µg/mL (≈ 178 µM)	62.5 µg/mL (≈ 88.9 µM)	62.5 µg/mL (≈ 88.9 µM)	8.73	1.96 µg/mL (≈ 2.79 µM)	31.2 µg/mL (≈ 44.5 µM)	62.5 µg/mL (≈ 88.9 µM)	62.5 µg/mL (≈ 88.9 µM)	5.84	125 µg/mL (≈ 178 µM)	62.5 µg/mL (≈ 88.9 µM)	3.4
OC(Cn1cncn1)(Cn1cncn1)c1ccc(F)cc1F [FLUCONAZOLE]			15.6 µg/mL (≈ 51 µM)			3.9 µg/mL (≈ 12.7 µM)					3.9 µg/mL (≈ 12.7 µM)	
CC1(C)S[C@@H]2[C@H](NC(=O)[C@H](N)c3ccccc3)C(=O)N2[C@H]1C(=O)O [AMPICILLIN]	31.2 µg/mL (≈ 89.4 µM)	0.98 µg/mL (≈ 2.8 µM)					31.2 µg/mL (≈ 89.4 µM)	125 µg/mL (≈ 358 µM)		15.6 µg/mL (≈ 44.7 µM)		
COC(=O)[C@H]1C[C@@H](C(=O)OC)C(c2ccccc2)(c2ccccc2)N1c1nc(-c2ccccc2)c(C(=O)c2ccc(OC)cc2)s1	250 µg/mL (≈ 395 µM)	250 µg/mL (≈ 395 µM)	62.5 µg/mL (≈ 98.8 µM)	10	15.6 µg/mL (≈ 24.7 µM)	62.5 µg/mL (≈ 98.8 µM)	125 µg/mL (≈ 198 µM)	250 µg/mL (≈ 395 µM)	6.31	250 µg/mL (≈ 395 µM)	125 µg/mL (≈ 198 µM)	2.46
COC(=O)[C@H]1[C@@H](C(=O)OC)C(c2ccccc2)(c2ccccc2)N(c2nc(-c3ccccc3)c(C(=O)c3ccccc3)s2)[C@H]1C(=O)OC	125 µg/mL (≈ 189 µM)	62.5 µg/mL (≈ 94.6 µM)	62.5 µg/mL (≈ 94.6 µM)	8.5	15.6 µg/mL (≈ 23.6 µM)	31.2 µg/mL (≈ 47.3 µM)	62.5 µg/mL (≈ 94.6 µM)	62.5 µg/mL (≈ 94.6 µM)	5.81	125 µg/mL (≈ 189 µM)	62.5 µg/mL (≈ 94.6 µM)	3.35
COC(=O)[C@H]1[C@@H](C(=O)OC)C(c2ccccc2)(c2ccccc2)N(c2nc(-c3ccccc3)c(C(=O)c3ccc(C#N)cc3)s2)[C@H]1C(=O)OC	125 µg/mL (≈ 182 µM)	62.5 µg/mL (≈ 91.1 µM)	62.5 µg/mL (≈ 91.1 µM)	8.9	7.81 µg/mL (≈ 11.4 µM)	31.2 µg/mL (≈ 45.6 µM)	62.5 µg/mL (≈ 91.1 µM)	62.5 µg/mL (≈ 91.1 µM)	5.66	125 µg/mL (≈ 182 µM)	31.2 µg/mL (≈ 45.6 µM)	3.53
COC(=O)[C@H]1C[C@@H](C(=O)OC)C(c2ccccc2)(c2ccccc2)N1c1nc(-c2ccccc2)c(C(=O)c2ccc(Br)cc2)s1	250 µg/mL (≈ 367 µM)	250 µg/mL (≈ 367 µM)	62.5 µg/mL (≈ 91.7 µM)	9.91	7.81 µg/mL (≈ 11.5 µM)	62.5 µg/mL (≈ 91.7 µM)	250 µg/mL (≈ 367 µM)	125 µg/mL (≈ 183 µM)	5.99	250 µg/mL (≈ 367 µM)	31.2 µg/mL (≈ 45.8 µM)	3.11
NNC(=O)c1ccncc1 [ISONIAZID]					0.98 µg/mL (≈ 7.15 µM)							
COC(=O)[C@H]1C[C@@H](C(=O)OC)C(c2ccccc2)(c2ccccc2)N1c1nc(-c2ccccc2)c(C(=O)c2ccc(F)cc2)s1	125 µg/mL (≈ 201 µM)	250 µg/mL (≈ 403 µM)	62.5 µg/mL (≈ 101 µM)	9.69	15.6 µg/mL (≈ 25.2 µM)	62.5 µg/mL (≈ 101 µM)	125 µg/mL (≈ 201 µM)	250 µg/mL (≈ 403 µM)	6.09	125 µg/mL (≈ 201 µM)	62.5 µg/mL (≈ 101 µM)	2.63
